In BindingDB's records for doi:10.1016/j.bmcl.2014.08.029 (Rhône-Poulenc Rorer, 2014):
pIC50: −log10 of the molar value.

Assay: Antagonist activity at CRTh2 receptor in human whole blood assessed as inhibition of PGD2-induced eosinophil shape change preincubated for 10 mins with PGD2 addition measured after 4 mins by forward scatter and side scatter analysis

| Structure (SMILES) | pIC50 |
| --- | --- |
| CCN(Cc1cc(OC(F)(F)F)ccc1-n1cc(CC(=O)O)c2ccc(C)nc21)C(=O)C1CC1 | 8.17 |
| CCN(Cc1cc(C(F)(F)F)ccc1-c1nn(CC(=O)O)c2cccc(OC)c12)C(=O)C1CC1 | 7.57 |
| CCN(Cc1cc(C(F)(F)F)ccc1-c1nn(CC(=O)O)c2ccc(C)cc12)C(=O)C1CC1 | 7.89 |
| CCN(Cc1cc(C(F)(F)F)ccc1-c1nn(CC(=O)O)c2cccc(C#N)c12)C(=O)C1CC1 | 6.99 |
| Cc1ccc2c(CC(=O)O)cn(-c3ccc(C(F)(F)F)cc3CN(CC3CC3)C(=O)C3CC3)c2n1 | 7.66 |
| CCN(Cc1cc(C(F)(F)F)ccc1-n1cc(CC(=O)O)c2ccc(C)nc21)C(=O)C1CC1 | 8.11 |
| CCN(Cc1cc(C(F)(F)F)ccc1-c1nn(CC(=O)O)c2ccc(Cl)c(F)c12)C(=O)C1CC1 | 7.74 |
| Cc1ccc2c(CC(=O)O)cn(-c3ccc(C(F)(F)F)cc3CN(CCOc3ccccc3)C(=O)C3CC3)c2n1 | 7.22 |
| CCN(Cc1cc(C(F)(F)F)ccc1-c1nn(CC(=O)O)c2cccc(Cl)c12)C(=O)C1CC1 | 6.80 |
| CCN(Cc1cc(C(F)(F)F)ccc1-n1cc(CC(=O)O)c2cccnc21)C(=O)C1CC1 | 7.47 |
| CCN(Cc1cc(C(F)(F)F)ccc1-n1cc(CC(=O)O)c2ccc(C)nc21)C(=O)C1CCC1 | 8.07 |
| CCN(Cc1cc(C(F)(F)F)ccc1-c1nn(CC(=O)O)c2ccc(F)cc12)C(=O)C1CC1 | 7.47 |
| CCN(Cc1ccccc1-n1cc(CC(=O)O)c2ccc(C)nc21)C(=O)C1CC1 | 8.02 |
| CCN(Cc1cc(C(F)(F)F)ccc1-n1cc(CC(=O)O)c2ccc(C)nc21)C(=O)COC | 8.30 |
| CCN(Cc1cc(C(F)(F)F)ccc1-c1cc(CC(=O)O)c2ccc(C)nn12)C(=O)C1CC1 | 8.14 |
| CCN(Cc1cc(F)ccc1-c1cn(CC(=O)O)c2ccc(C(F)(F)F)cc12)C(=O)C1CC1 | 7.77 |

| Structure (SMILES) | pIC50 |
| --- | --- |
| CCN(Cc1ccccc1-n1cc(CC(=O)O)c2ccc(C(F)(F)F)cc21)C(=O)C1CC1 | 8.11 |
| CCN(Cc1cc(C(F)(F)F)ccc1-c1nn(CC(=O)O)c2ccc(Cl)cc12)C(=O)C1CC1 | 7.64 |
| CCN(Cc1cc(C(F)(F)F)ccc1-c1cc(CC(=O)O)n2ccc(C)nc12)C(=O)C1CC1 | 7.62 |
| CCN(Cc1cc(C(F)(F)F)ccc1-c1nn(CC(=O)O)c2cccc(F)c12)C(=O)C1CC1 | 7.64 |
| CCN(Cc1cc(C(F)(F)F)ccc1-c1nn(CC(=O)O)c2ccc(F)c(Cl)c12)C(=O)C1CC1 | 7.15 |
| CCN(Cc1cc(C(F)(F)F)ccc1-n1cc(CC(=O)O)c2ccc(C(F)F)nc21)C(=O)C1CC1 | 8.10 |
| CCN(Cc1cc(C(F)(F)F)ccc1-n1cc(CC(=O)O)c2ccc(C)nc21)C(=O)CC1CC1 | 7.54 |
| CCN(Cc1cc(C(F)(F)F)ccc1-n1cc(CC(=O)O)c2ccc(C)nc21)C(=O)NCc1ccccc1 | 8.33 |
| CCN(Cc1cc(F)ccc1-n1cc(CC(=O)O)c2cccnc21)C(=O)C1CC1 | 7.96 |
| CCN(Cc1cc(C(F)(F)F)ccc1-c1cn(CC(=O)O)c2ccc(C(F)(F)F)nc12)C(=O)C1CC1 | 7.09 |
| CCN(Cc1cc(F)ccc1-n1cc(CC(=O)O)c2ccc(C)nc21)C(=O)C1CC1 | 8.19 |
| CCN(Cc1cc(C(F)(F)F)ccc1-n1cc(CC(=O)O)c2ccc(C)nc21)C(=O)Cc1ccccc1 | 7.60 |
| CCN(Cc1cc(C)ccc1-n1cc(CC(=O)O)c2ccc(C)nc21)C(=O)C1CC1 | 7.89 |
| CCN(Cc1cc(C(F)(F)F)ccc1-c1nn(CC(=O)O)c2cccc(C)c12)C(=O)C1CC1 | 6.97 |
| CCN(Cc1cc(Cl)ccc1-n1cc(CC(=O)O)c2ccc(C)nc21)C(=O)C1CC1 | 7.74 |
| CCN(Cc1cc(C(F)(F)F)ccc1-c1cn(CC(=O)O)c2ccc(C)nc12)C(=O)C1CC1 | 8.00 |
